Assay results published in patent publication US9000159B2 (Glenmark Pharmaceuticals, S.A., priority 2009, dated 2015).

Target: T1, Human TRPA1 (Homo sapiens, UniProt O75762)
T1 construct: expressed in transfected cells; host or cells: CHO cells
Experiment: 45Calcium uptake assay: inhibition of AITC induced cellular uptake of radioactive calcium
Type: cell-based
Conditions: AITC (30 μM) induced 45Ca uptake, Human TRPA1 expressing CHO cells; for inhibition at 1 µM: 1.0 μM test compound, read-out: Percentage inhibition at 1.0 μM; for inhibition at 10 µM: 10.0 μM test compound, read-out: Percentage inhibition at 10.0 μM; for IC50: read-out: Human IC50 value (range)
Source text: The illustrative examples of the present invention are screened for TRPA1 activity according to a modified procedure described in (a) Tóth, A. et al., Life Sciences, 2003, 73, 487-498. (b) McNamara C, R. et al., Proc. Natl. Acad. Sci. U.S.A., 2007, 104, 13525-13530. The screening of the compounds can be carried out by other methods and procedures known to persons skilled in the art.
Screening for TRPA1 Antagonist Using the ^45Calcium Uptake Assay
The inhibition of TRPA1 receptor activation was measured as inhibition of allyl isothiocyanate (AITC) induced cellular uptake of radioactive calcium. Test compounds were dissolved in DMSO to prepare 10 mM stock solution and then diluted using plain medium with 0.1% BSA and 1.8 mM CaCl2 to get desired concentration. Final concentration of DMSO in the reaction was 0.5% (v/v). Human TRPA1 expressing CHO cells were grown in F-12 DMEM medium with 10% FBS, 1% penicillin-streptomycin solution, 400 μg/ml of G-418. Cells were seeded 24 h prior to the assay in 96 well plates so as to get ˜50,000 cells per well on the day of experiment. Cells were treated with test compounds for 10 min followed by addition of AITC at a final concentration of 30 μM and 5 μCi/ml ^45Ca^+2 for 3 min. Cells were washed and lysed using buffer containing 1% Triton X-100, 0.1% deoxycholate and 0.1% SDS. Radioactivity in the lysate was measured in Packard Top count after addition of liquid scintillant. Concentration response curves were plotted as a % of maximal response obtained in the absence of test antagonist. IC50 value was calculated from concentration response curve by nonlinear regression analysis using GraphPad PRISM software.

T1 sequence (O75762 whole entry): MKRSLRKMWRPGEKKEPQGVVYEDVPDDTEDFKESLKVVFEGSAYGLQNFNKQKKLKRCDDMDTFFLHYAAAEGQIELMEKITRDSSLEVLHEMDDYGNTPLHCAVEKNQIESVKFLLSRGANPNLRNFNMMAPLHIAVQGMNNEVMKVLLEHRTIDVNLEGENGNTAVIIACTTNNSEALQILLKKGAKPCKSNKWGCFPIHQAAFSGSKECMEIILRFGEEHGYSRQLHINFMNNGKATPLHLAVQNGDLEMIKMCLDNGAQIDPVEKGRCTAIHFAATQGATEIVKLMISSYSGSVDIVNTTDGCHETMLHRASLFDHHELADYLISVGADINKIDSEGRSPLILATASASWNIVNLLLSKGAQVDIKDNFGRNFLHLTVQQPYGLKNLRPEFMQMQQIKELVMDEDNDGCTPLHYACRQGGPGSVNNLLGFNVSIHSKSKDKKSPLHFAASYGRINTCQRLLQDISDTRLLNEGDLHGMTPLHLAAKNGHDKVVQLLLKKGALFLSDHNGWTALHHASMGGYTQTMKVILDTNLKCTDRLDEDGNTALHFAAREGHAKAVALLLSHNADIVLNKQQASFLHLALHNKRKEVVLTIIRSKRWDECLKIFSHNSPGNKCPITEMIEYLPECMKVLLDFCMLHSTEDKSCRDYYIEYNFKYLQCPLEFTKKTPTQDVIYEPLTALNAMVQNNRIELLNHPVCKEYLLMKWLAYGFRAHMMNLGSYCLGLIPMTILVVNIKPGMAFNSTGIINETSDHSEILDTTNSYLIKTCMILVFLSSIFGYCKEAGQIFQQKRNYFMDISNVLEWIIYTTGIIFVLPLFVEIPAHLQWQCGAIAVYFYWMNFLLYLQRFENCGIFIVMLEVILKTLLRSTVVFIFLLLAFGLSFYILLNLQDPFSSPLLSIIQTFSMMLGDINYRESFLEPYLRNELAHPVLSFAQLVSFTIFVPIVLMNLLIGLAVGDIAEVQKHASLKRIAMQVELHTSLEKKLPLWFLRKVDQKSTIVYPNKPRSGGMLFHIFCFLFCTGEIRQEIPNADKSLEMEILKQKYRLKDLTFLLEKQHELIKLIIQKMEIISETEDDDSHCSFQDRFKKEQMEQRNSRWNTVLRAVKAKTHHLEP

| Compound | inhibition at 1 µM [%] | inhibition at 10 µM [%] | IC50 [nM] |
| --- | --- | --- | --- |
| Cn1c(=O)c2c(ccn2CC(=O)Nc2nc(-c3cc(F)c(OCc4ccc(C(F)(F)F)cc4)c(F)c3)cs2)n(C)c1=O [Example 21, 2-(1,3-Dimethyl-2,4-dioxo-1,2,3,4-tetrahydro-5H-pyrrolo[3,2-d]pyrimidin-5-yl)-N-{4-[3,5-difluoro-4-[4-(trifluoromethyl)benzyloxy]phenyl)-1,3-thiazol-2-yl}acetamide] | 11.2 | 16.2 | – |
| Cc1cc2c(c(=O)n(C)c(=O)n2C)n1CC(=O)Nc1nc(-c2ccc(C(F)(F)F)c(F)c2)cs1 [Example 22, N-[4-(3-Fluoro-4-trifluoromethylphenyl)-1,3-thiazol-2-yl]-2-(1,3,6-trimethyl-2,4-dioxo-1,2,3,4-tetrahydro-5H-pyrrolo[3,2-d]pyrimidin-5-yl)acetamide] | 81.4 | 99.4 | < 50 |
| Cn1c(=O)c2c(ccn2CC(=O)Nc2nc(-c3ccc(OCC(F)(F)F)c(Br)c3)cs2)n(C)c1=O [Example 23, N-{4-[3-Bromo-4-(2,2,2-trifluoroethoxy)phenyl]-1,3-thiazol-2-yl}-2-(1,3-dimethyl-2,4-dioxo-1,2,3,4-tetrahydro-5H-pyrrolo[3,2-d]pyrimidin-5-yl)acetamide] | 87.4 | 92.2 | 50 to 100 |
| Cc1cc2c(c(=O)n(C)c(=O)n2C)n1CC(=O)Nc1nc(-c2cc(F)c(OCC(C)(C)C)c(F)c2)cs1 [Example 24, N1-{4-[3,5-Difluoro-4-(2,2-dimethylpropoxy)phenyl]-1,3-thiazol-2-yl}-2-(1,3,6-trimethyl-2,4-dioxo-1,2,3,4-tetrahydro-5H-pyrrolo[3,2-d]pyrimidin-5-yl)acetamide] | 93.9 | 99.4 | < 50 |
| Cc1cc2c(c(=O)n(C)c(=O)n2C)n1CC(=O)Nc1nc(-c2ccc(F)c(C(F)(F)F)c2F)cs1 [Example 25] | 68.3 | 94.8 | – |
| Cc1cc2c(c(=O)n(C)c(=O)n2C)n1CC(=O)Nc1nc(-c2cc(F)c(OCC(F)(F)F)c(F)c2)cs1 [Example 26, N-[4-(3,5-Difluoro-4-(2,2,2-trifluoroethoxy)phenyl)-1,3-thiazol-2-yl]-2-(1,3,6-trimethyl-2,4-dioxo-1,2,3,4-tetrahydro-5H-pyrrolo[3,2-d]pyrimidin-5-yl)acetamide] | 95.3 | 98.3 | < 50 |
| Cc1cc2c(c(=O)n(C)c(=O)n2C)n1CC(=O)Nc1nc(-c2cc(F)c(OCC3CCC3)c(F)c2)cs1 [Example 27, N-[4-(4-Cyclobutylmethoxy-3,5-difluorophenyl)-1,3-thiazol-2-yl]-2-(1,3,6-trimethyl-2,4-dioxo-1,2,3,4-tetrahydro-5H-pyrrolo[3,2-d]pyrimidin-5-yl)acetamide] | 87.6 | 99.2 | < 50 |
| Cc1cc2c(c(=O)n(C)c(=O)n2C)n1CC(=O)Nc1nc(-c2cc(F)c(OCC(C)(C)C)c(Cl)c2)cs1 [Example 28] | 99.5 | 99.7 | < 50 |
| Cc1cc2c(c(=O)n(C)c(=O)n2C)n1CC(=O)Nc1nc(-c2cc(Cl)c(OCC(C)(C)C)c(Cl)c2)cs1 [Example 29] | 95.6 | 97.1 | < 50 |
| Cc1cc2c(c(=O)n(C)c(=O)n2C)n1CC(=O)Nc1nc(-c2cc(F)c(OCC(F)(F)F)c(Cl)c2)cs1 [Example 30] | 93.6 | 100 | < 50 |
| Cc1cc2c(c(=O)n(C)c(=O)n2C)n1CC(=O)Nc1nc(-c2ccc(OCC(C)(C)C)c(F)c2)cs1 [Example 31, N-{4-[4-(2,2-Dimethylpropoxy)-3-fluorophenyl]-1,3-thiazol-2-yl}-2-(1,3,6-trimethyl-2,4-dioxo-1,2,3,4-tetrahydro-5H-pyrrolo[3,2-d]pyrimidin-5-yl)acetamide] | 87.4 | 95.3 | 50 to 100 |
| Cc1cc2c(c(=O)n(C)c(=O)n2C)n1CC(=O)Nc1nc(-c2ccc(OCC(C)(C)C)c(Cl)c2)cs1 [Example 32, N-{4-[3-Chloro-4-(2,2-dimethylpropoxy)phenyl]-1,3-thiazol-2-yl}-2-(1,3,6-trimethyl-2,4-dioxo-1,2,3,4-tetrahydro-5H-pyrrolo[3,2-d]pyrimidin-5-yl)acetamide] | 92.8 | 96.3 | < 50 |
| Cc1cc2c(c(=O)n(C)c(=O)n2C)n1CC(=O)Nc1cc(-c2ccc(Br)cc2)on1 [Example 33, N-[5-(4-bromophenyl)isoxazol-3-yl]-2-(1,3,6-trimethyl-2,4-dioxo-1,2,3,4-tetrahydro-5H-pyrrolo[3,2-d]pyrimidin-5-yl)acetamide] | 0 | 28.3 | – |
| Cc1cn(CC(=O)Nc2nc(-c3cc(F)c(OCC(C)(C)C)c(F)c3)cs2)c2c(=O)n(C)c(=O)n(C)c12 [Example 34, N-{4-[3,5-Difluoro-4-(2,2-dimethylpropoxy)phenyl]-1,3-thiazol-2-yl}-2-(1,3,7-trimethyl-2,4-dioxo-1,2,3,4-tetrahydro-5H-pyrrolo[3,2-d]pyrimidin-5-yl)acetamide] | 88.8 | 97 | > 100 |
| Cc1cn(CC(=O)Nc2nc(-c3ccc(C(F)(F)F)c(F)c3)cs2)c2c(=O)n(C)c(=O)n(C)c12 [Example 35, N-{4-[3-Fluoro-4-(trifluoromethyl)phenyl]-1,3-thiazol-2-yl}-2-(1,3,7-trimethyl-2,4-dioxo-1,2,3,4-tetrahydro-5H-pyrrolo[3,2-d]pyrimidin-5-yl)acetamide] | 64.7 | 96.8 | – |
| Cn1c(=O)c2c(c(Br)cn2CC(=O)Nc2nc(-c3cc(F)c(OCC(C)(C)C)c(F)c3)cs2)n(C)c1=O [Example 36, 2-(7-Bromo-1,3-dimethyl-2,4-dioxo-1,2,3,4-tetrahydro-5H-pyrrolo[3,2-d]pyrimidin-5-yl)-N-{4-[3,5-difluoro-4-(2,2-dimethylpropoxy)phenyl]-1,3-thiazol-2-yl}acetamide] | 35.6 | 70.1 | – |
| Cn1c(=O)c2c(c(Br)cn2CC(=O)Nc2nc(-c3ccc(C(F)(F)F)c(F)c3)cs2)n(C)c1=O [Example 37, 2-(7-Bromo-1,3-dimethyl-2,4-dioxo-1,2,3,4-tetrahydro-5H-pyrrolo[3,2-d]pyrimidin-5-yl)-N-{4-[3-fluoro-4-(trifluoromethyl)phenyl]-1,3-thiazol-2-yl}acetamide] | 52.9 | 95.4 | – |
| CN(C)Cc1cn(CC(=O)Nc2nc(-c3ccc(C(F)(F)F)c(F)c3)cs2)c2c(=O)n(C)c(=O)n(C)c12 [Example 38, N-{4-[3-Fluoro-4-(trifluoromethyl)phenyl]-1,3-thiazol-2-yl}-2-{7-[(dimethylamino)methyl]-1,3-dimethyl-2,4-dioxo-1,2,3,4-tetrahydro-5H-pyrrolo[3,2-d]pyrimidin-5-yl}acetamide] | 57 | 97.8 | – |
| CN(C)Cc1cn(CC(=O)Nc2nc(-c3cc(F)c(OCC(C)(C)C)c(F)c3)cs2)c2c(=O)n(C)c(=O)n(C)c12 [Example 39] | 4.89 | 21.1 | – |
| CCN(CC)Cc1cn(CC(=O)Nc2nc(-c3ccc(C(F)(F)F)c(F)c3)cs2)c2c(=O)n(C)c(=O)n(C)c12 [Example 40, N-{4-[3-Fluoro-4-(trifluoromethyl)phenyl]-1,3-thiazol-2-yl}-2-{7-[(diethylamino)methyl]-1,3-dimethyl-2,4-dioxo-1,2,3,4-tetrahydro-5H-pyrrolo[3,2-d]pyrimidin-5-yl}acetamide] | 48.5 | 86.2 | – |
| Cn1c(=O)c2c(CC(=O)Nc3nc(-c4ccc(C(F)(F)F)c(F)c4)cs3)cn(C)c2n(C)c1=O [Example 41, N-{4-[3-Fluoro-4-(trifluoromethyl)phenyl]-1,3-thiazol-2-yl}-2-(1,3,7-trimethyl-2,4-dioxo-2,3,4,7-tetrahydro-1H-pyrrolo[2,3-d]pyrimidin-5-yl)acetamide] | 38 | 86.5 | – |
| Cn1c(=O)c2c(CC(=O)Nc3nc(-c4cc(F)c(OCC(C)(C)C)c(F)c4)cs3)cn(C)c2n(C)c1=O [Example 42, N-[4-(3,5-Difluoro-4-(2,2-dimethylpropoxy)phenyl)-1,3-thiazol-2-yl]-2-(1,3,7-trimethyl-2,4-dioxo-2,3,4,7-tetrahydro-1H-pyrrolo[2,3-d]pyrimidin-5-yl)acetamide] | 41.1 | 63.1 | – |
| Cn1c(=O)c2c(CC(=O)Nc3nc(-c4ccc(F)c(C(F)(F)F)c4F)cs3)cn(C)c2n(C)c1=O [Example 43, N-{4-[2,4-Difluoro-3-(trifluoromethyl)phenyl]-1,3-thiazol-2-yl}-2-(1,3,7-trimethyl-2,4-dioxo-2,3,4,7-tetrahydro-1H-pyrrolo[2,3-d]pyrimidin-5-yl)acetamide] | 30.1 | 41.6 | – |
